{
  "source": "patent US5162201A",
  "about": "“Analytical method making use of monoglyceride lipase” (priority 1987, dated 1992)",
  "key": {"[1]": {"system": "monoglyceride lipase of this invention", "assay": "Substrate specificity of the monoglyceride lipase", "format": "biochemical, Bacillus stearothermophilus H-165", "conditions": "named substance used as substrate", "method": "(8) Substrate specificity: The substrate specificity of the monoglyceride lipase of this invention was investigated under conditions which followed the below-described measurement method of enzymatic activity for the monoglyceride lipase of this invention.\n(§1) To 0.4 ml of a reaction solution of the above composition, 50 μl of 10 mM monolaurin (0.5% aqueous solution of \"Triton X-100\") was added. The resultant mixture was provisionally heated at 37° C. for 2-3 minutes and 50 μl of an enzyme solution was added to initiate a reaction. Exactly 10 minutes later, 2.5 ml of 0.5% SDS (sodium dodecyl suflate) was added to terminate the reaction. The absorbance was measured at a wavelength of 550 nm. Regarding the enzymatic activity, the activity capable of producing 1 μmole of glycerol per minute was defined as 1 Unit (1 U). The following equation will be followed upon calculation of enzymatic activity (potency) by this measurement method of enzymatic activity. [formula] ΔA 550: Absorbance at the wavelength of 500 nm 2.95: Total volume of reaction mixture (ml)"}, "[2]": {"system": "monoglyceride lipase of this invention", "assay": "Effects of surface active agents and metal ions on the monoglyceride lipase", "format": "biochemical, Bacillus stearothermophilus H-165", "conditions": "for Activity of lipase (%): not added = 100, 10 min", "method": "as §1, with “activity.” for “activity. [formula] ΔA 550: Absorbance at the wavelength of 500 nm 2.95: Total volume of reaction mixture (ml)”"}, "[3]": {"system": "monoglyceride lipase of this invention", "assay": "Glycerol liberated from α,β-diglycerides by pancreatic lipase plus monoglyceride lipase", "format": "biochemical, Bacillus stearothermophilus H-165", "conditions": "for glycerol liberated from the α,β-diglyceride substrate: α-position hydrolyzed by pancreatic lipase, then monoglyceride lipase of this invention on the β-monoglyceride formed", "method": "2) Substrate specificity of the monoglyceride lipase upon use of α,β-diglyceride as a substrate:\ni) The below-described α,β-diglycerides were separately employed as substrates. Their α-positions were hydrolyzed by using pancreatic lipase and the monoglyceride lipase of this invention was caused to act on β-monoglycerides thus formed. Thereafter, glycerol thus liberated was analyzed."}, "[4]": {"assay": "Confirmation by HPLC of fatty acid liberated from α-linoleoyl-β-oleoyl-diglyceride", "format": "biochemical", "conditions": "37° C., 10 minutes, pH 8.3; monoglyceride lipase (0.5 U) added to the pancreatic lipase reaction solution", "method": "1) Confirmation of a fatty acid liberated from α-linoleoyl-β-oleoyl-diglyceride as a substrate, by high performance liquid chromatography (HPLC): i) Pancreas-derived lipase (50 μl) was added to 1.0 ml of a reaction solution having a composition of 0.5 mg of α-linoleoyl-β-oleoyl-diglyceride, 1.8 mg of a non-ionic surface active agent (\"Triton X-100\", trade name; product of Sigma Chemical Company), 3.8 mg of deoxycholic acid, 20 U of colipase, 0.15 mg of calcium chloride, and 200 μl of 0.1 M N-tri(hydroxymethyl) methyl-3-aminopropanesulfonic acid (TAPS)-NaOH (pH 8.3). After allowing them to react at 37° C. for 10 minutes, the reaction was terminated. A 15 μl aliquot of the reaction mixture was applied on a column and was then analyzed by high performance liquid chromatography under the following conditions.\nColumn: \"Zorbox ODS\" (trade name; 4.6 mm.phi.×25 cm)\nSolvent: acetonitrile:H2 O (96:4)\nDetection: ultraviolet absorption at 205 nm […]\nii) The monoglyceride lipase (0.5 U) was added to a reaction solution of the same composition as that employed above. A fatty acid liberated in substantially the same manner was detected by high performance liquid chromatography. As a result, linoleic acid and oleic acid were confirmed at the retention times of 23 minutes and 31 minutes respectively."}},
  "data": [
    {"molecule": "CCCCC/C=C\\C/C=C\\CCCCCCCC(=O)OCC(CO)OC(=O)CCCCCCC/C=C\\C/C=C\\CCCCC", "note": "(stereo not shown) [1,2-dilinolein]", "values": [
      {"measurement": "glycerol hydrolyzed from the substrate in the presence of the monoglyceride lipase", "setting": "[1]", "value": "not detected"}
    ]},
    {"molecule": "CCCCC/C=C\\C/C=C\\CCCCCCCC(=O)OCC(O)COC(=O)CCCCCCC/C=C\\C/C=C\\CCCCC", "note": "[1,3-dilinolein]", "values": [
      {"measurement": "glycerol hydrolyzed from the substrate in the presence of the monoglyceride lipase", "setting": "[1]", "value": "not detected"}
    ]},
    {"molecule": "[Ca+2].[Cl-].[Cl-]", "note": "[CaCl2]", "values": [
      {"measurement": "effect of addition on the activity of the monoglyceride lipase (in words)", "setting": "[2]", "value": "not affected"}
    ]},
    {"molecule": "C[C@H](CCC(=O)O)[C@H]1CC[C@H]2[C@@H]3[C@H](O)C[C@@H]4C[C@H](O)CC[C@]4(C)[C@H]3C[C@H](O)[C@]12C", "note": "[Cholic acid]", "values": [
      {"measurement": "effect of addition on the activity of the monoglyceride lipase (in words)", "setting": "[2]", "value": "inhibition of the activity is observed in a high concentration range"}
    ]},
    {"molecule": "[Cl-].[Cl-].[Mg+2]", "note": "[MgCl2]", "values": [
      {"measurement": "effect of addition on the activity of the monoglyceride lipase (in words)", "setting": "[2]", "value": "not affected"}
    ]},
    {"molecule": "CCCCCCCCCCCC(=O)OCC(O)CO", "note": "(stereo not shown) [Monolaurin]", "values": [
      {"measurement": "activity against the substrate (in words)", "setting": "[1]", "value": "maximum activity"}
    ]},
    {"molecule": "CCCCCCCC/C=C\\CCCCCCCC(=O)OC(CO)CO", "note": "[Monoolein (β-monoglyceride), Monoolein]", "values": [
      {"measurement": "Activity of lipase (%)", "setting": "[1]; Monolaurin = 100.0", "value": 75.6, "unit": "%"}
    ]},
    {"molecule": "CCCCCCCC/C=C\\CCCCCCCC(=O)OCC(COC(=O)CCCCCCC/C=C\\CCCCCCCC)OC(=O)CCCCCCC/C=C\\CCCCCCCC", "note": "[Triolein]", "values": [
      {"measurement": "glycerol hydrolyzed from the substrate in the presence of the monoglyceride lipase", "setting": "[1]", "value": "not detected"}
    ]},
    {"molecule": "CCCCC/C=C\\C/C=C\\CCCCCCCC(=O)OCC(CO)OC(=O)CCCCCCC/C=C\\C/C=C\\CCCCC", "note": "(stereo not drawn) [α,β-dilinoleylglyceride]", "values": [
      {"measurement": "glycerol liberated from the α,β-diglyceride substrate", "setting": "[3]", "value": "glycerol was detected"}
    ]},
    {"molecule": "CCCCCCCC/C=C\\CCCCCCCC(=O)OCC(CO)OC(=O)CCCCCCCCCCCCCCC", "note": "(stereo not drawn) [α-oleyl-β-palmitoyldiglyceride]", "values": [
      {"measurement": "glycerol liberated from the α,β-diglyceride substrate", "setting": "[3]", "value": "glycerol was detected"}
    ]},
    {"molecule": "CCCCCCCC/C=C\\CCCCCCCC(=O)OC(CO)COC(=O)CCCCCCCCCCCCCCC", "note": "(stereo not drawn) [α-palmitoyl-β-oleoyldiglyceride]", "values": [
      {"measurement": "glycerol liberated from the α,β-diglyceride substrate", "setting": "[3]", "value": "glycerol was detected"}
    ]},
    {"molecule": "Triton X-100", "values": [
      {"measurement": "effect of addition on the activity of the monoglyceride lipase (in words)", "setting": "[2]", "value": "inhibition of the activity is observed in a high concentration range"},
      {"measurement": "Activity of lipase (%)", "setting": "[2]; reagent concentration 0.1%", "value": 81.7, "unit": "%"},
      {"measurement": "Activity of lipase (%)", "setting": "[2]; reagent concentration 0.5%", "value": 46.5, "unit": "%"}
    ]},
    {"molecule": "pancreatic lipase: pancreas-derived lipase that hydrolyzes the α-position of α,β-diglyceride (protein, UniProt P00591 1-450, looked up) Pancreatic triacylglycerol …: SEVCFPRLGCFSDDAPWAGIVQRPLKILPWSPKDVDTRFLLYTNQNQNNYQELVADPSTITNSNFRMDRKTRFIIHGFIDKGEEDWLSNICKNLFKVESVNCICVDWKGGSRTGYTQASQNIRIVGAEVAYFVEVLKSSLGYSPSNVHVIGHSLGSHAAGEAGRRTNGTIERITGLDPAEPCFQGTPELVRLDPSDAKFVDVIHTDAAPIIPNLGFGMSQTVGHLDFFPNGGKQMPGCQKNILSQIVDIDGIWEGTRDFVACNHLRSYKYYADSILNPDGFAGFPCDSYNVFTANKCFPCPSEGCPQMGHYADRFPGKTNGVSQVFYLNTGDASNFARWRYKVSVTLSGKKVTGHILVSLFGNEGNSRQYEIYKGTLQPDNTHSDEFDSDVEVGDLQKVKFIWYNNNVINPTLPRVGASKITVERNDGKVYDFCSQETVREEVLLTLNPC", "values": [
      {"measurement": "glycerol liberated from the α,β-diglyceride substrates", "setting": "[3]; pancreatic lipase used singly", "value": "glycerol was not detected"},
      {"measurement": "position of α,β-diglyceride / monoglyceride acted on, from the fatty acid liberated", "setting": "[4]", "value": "act on the α-position of α,β-diglyceride"}
    ]}
  ]
}
